How the values were obtained:
α1I [1] = biological target: T1, α1I (Homo sapiens, UniProt Q9P0X4); assay: α1I potency; format: cell-based
α1I + Kir = α1I + Kir (Homo sapiens, UniProt Q9P0X4); assay: α1I + Kir potency; format: cell-based
α1I [2] = biological target: T1, α1I; assay: α1I VC (voltage clamp) at set holding potentials; format: cell-based
hERG = hERG (Homo sapiens, UniProt Q12809); assay: hERG counter-screen; format: biochemical
L-Type = L-Type calcium channel counter-screen; format: biochemical
N-Type = N-Type (Homo sapiens, UniProt Q00975); assay: N-Type calcium channel counter-screen; format: biochemical
Na Channel = Na Channel counter-screen; format: biochemical
Panlabs = Panlabs selectivity panel
PGP = PGP (Homo sapiens, UniProt P08183); assay: PGP substrate assay; format: in vitro ADME
Chain of PGP (P08183 whole entry): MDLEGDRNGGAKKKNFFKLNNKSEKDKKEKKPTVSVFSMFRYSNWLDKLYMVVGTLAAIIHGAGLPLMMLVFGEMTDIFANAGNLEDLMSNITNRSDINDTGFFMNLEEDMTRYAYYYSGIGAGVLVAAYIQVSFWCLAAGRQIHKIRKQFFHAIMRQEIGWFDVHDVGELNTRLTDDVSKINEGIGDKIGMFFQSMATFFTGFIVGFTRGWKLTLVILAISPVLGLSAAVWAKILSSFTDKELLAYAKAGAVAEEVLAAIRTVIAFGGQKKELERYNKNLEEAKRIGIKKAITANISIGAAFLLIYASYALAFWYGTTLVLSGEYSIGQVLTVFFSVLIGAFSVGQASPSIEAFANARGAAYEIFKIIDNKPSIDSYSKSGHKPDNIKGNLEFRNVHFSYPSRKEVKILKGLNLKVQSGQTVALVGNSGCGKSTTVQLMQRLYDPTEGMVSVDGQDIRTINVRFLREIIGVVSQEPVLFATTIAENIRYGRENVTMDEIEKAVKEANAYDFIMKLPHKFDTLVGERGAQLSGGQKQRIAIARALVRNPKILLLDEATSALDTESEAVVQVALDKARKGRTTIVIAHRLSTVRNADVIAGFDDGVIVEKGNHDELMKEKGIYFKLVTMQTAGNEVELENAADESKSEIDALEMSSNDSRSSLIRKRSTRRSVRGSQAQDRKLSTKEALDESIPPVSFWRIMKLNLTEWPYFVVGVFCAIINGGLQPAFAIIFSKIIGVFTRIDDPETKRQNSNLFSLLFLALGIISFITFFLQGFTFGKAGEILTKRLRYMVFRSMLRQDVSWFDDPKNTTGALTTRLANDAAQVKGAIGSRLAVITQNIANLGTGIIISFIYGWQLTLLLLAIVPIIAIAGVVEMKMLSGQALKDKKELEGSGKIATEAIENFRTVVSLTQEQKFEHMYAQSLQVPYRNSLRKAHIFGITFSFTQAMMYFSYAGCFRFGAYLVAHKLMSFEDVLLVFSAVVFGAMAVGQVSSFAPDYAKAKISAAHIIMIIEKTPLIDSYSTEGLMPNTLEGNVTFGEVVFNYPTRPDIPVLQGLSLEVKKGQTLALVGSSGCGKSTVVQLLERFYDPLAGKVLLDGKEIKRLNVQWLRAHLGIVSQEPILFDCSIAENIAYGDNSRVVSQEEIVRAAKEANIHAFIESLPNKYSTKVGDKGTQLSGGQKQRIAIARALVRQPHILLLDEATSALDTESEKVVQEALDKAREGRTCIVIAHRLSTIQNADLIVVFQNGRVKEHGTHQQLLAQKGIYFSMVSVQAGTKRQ

Papp permeability = format: in vitro ADME; conditions: not told
WAG/Rij = WAG/Rij in vivo model; conditions: 10 mpk, @4 hr
Pharmacokinetics in rat = format: in vivo
Pharmacokinetics in dog = format: in vivo
[3] = Pharmacokinetics in monkey; format: in vivo
[4] = plasma, 10 mg/kg, PO (1% methylcellulose), 10 mpk
[5] = plasma, 1 mg/kg, PO (1% methylcellulose), 1 mpk
[6] = plasma, 3 mg/kg, PO (1% methylcellulose), 3 mpk

T1 sequence (Q9P0X4 whole entry): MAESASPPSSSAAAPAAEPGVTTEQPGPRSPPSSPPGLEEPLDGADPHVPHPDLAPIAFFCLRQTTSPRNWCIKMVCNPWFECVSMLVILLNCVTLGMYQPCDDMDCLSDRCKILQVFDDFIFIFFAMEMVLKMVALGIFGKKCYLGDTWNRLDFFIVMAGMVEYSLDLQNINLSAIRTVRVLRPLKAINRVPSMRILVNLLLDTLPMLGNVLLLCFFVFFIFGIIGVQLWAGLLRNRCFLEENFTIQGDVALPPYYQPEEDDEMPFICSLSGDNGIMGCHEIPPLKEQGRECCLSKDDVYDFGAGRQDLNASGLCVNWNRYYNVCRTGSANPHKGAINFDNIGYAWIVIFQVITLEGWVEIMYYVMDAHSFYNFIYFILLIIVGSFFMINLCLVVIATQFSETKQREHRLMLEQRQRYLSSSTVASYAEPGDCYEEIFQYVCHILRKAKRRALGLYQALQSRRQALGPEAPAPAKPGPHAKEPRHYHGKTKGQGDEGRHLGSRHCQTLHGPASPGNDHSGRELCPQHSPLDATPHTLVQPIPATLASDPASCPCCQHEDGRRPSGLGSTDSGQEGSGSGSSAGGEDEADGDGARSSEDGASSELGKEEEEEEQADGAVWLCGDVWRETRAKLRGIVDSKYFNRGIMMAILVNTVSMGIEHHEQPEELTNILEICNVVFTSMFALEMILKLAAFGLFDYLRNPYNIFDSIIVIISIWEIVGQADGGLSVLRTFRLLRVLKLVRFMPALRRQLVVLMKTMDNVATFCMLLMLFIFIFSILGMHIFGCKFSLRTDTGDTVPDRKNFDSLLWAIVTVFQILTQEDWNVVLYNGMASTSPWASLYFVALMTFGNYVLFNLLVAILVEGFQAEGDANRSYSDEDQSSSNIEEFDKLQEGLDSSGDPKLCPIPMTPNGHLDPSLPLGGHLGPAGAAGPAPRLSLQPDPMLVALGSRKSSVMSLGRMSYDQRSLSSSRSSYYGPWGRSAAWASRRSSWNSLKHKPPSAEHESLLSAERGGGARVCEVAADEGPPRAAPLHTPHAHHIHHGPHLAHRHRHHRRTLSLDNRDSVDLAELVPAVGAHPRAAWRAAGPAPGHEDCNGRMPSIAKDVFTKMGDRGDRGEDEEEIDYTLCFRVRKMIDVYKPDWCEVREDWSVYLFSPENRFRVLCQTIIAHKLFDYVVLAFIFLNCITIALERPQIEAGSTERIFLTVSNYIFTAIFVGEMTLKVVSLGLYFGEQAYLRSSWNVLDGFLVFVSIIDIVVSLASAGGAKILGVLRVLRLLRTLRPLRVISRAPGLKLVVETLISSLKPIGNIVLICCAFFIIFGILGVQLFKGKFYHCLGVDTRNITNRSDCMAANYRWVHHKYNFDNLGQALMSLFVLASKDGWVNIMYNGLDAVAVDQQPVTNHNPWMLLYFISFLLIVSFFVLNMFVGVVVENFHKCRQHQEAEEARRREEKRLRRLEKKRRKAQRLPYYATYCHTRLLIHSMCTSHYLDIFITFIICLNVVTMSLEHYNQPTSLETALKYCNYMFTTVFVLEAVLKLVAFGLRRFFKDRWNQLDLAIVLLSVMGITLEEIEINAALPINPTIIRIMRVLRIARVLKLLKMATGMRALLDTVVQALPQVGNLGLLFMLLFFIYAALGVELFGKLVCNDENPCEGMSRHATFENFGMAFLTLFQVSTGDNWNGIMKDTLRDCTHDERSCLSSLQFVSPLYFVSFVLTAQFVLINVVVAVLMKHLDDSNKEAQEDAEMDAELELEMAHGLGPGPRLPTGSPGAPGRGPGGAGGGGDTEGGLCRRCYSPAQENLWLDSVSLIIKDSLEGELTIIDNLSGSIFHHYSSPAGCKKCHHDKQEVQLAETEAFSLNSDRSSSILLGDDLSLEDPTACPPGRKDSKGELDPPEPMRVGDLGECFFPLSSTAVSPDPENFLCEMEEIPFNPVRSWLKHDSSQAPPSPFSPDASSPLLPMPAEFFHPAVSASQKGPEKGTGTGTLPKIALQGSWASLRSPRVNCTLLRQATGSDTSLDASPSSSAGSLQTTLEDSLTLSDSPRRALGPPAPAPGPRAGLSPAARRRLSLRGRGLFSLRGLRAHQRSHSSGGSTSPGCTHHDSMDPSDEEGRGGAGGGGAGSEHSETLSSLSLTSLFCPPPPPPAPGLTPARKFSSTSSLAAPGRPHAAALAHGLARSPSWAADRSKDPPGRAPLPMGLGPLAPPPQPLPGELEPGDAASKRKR
Chain of hERG (Q12809 whole entry): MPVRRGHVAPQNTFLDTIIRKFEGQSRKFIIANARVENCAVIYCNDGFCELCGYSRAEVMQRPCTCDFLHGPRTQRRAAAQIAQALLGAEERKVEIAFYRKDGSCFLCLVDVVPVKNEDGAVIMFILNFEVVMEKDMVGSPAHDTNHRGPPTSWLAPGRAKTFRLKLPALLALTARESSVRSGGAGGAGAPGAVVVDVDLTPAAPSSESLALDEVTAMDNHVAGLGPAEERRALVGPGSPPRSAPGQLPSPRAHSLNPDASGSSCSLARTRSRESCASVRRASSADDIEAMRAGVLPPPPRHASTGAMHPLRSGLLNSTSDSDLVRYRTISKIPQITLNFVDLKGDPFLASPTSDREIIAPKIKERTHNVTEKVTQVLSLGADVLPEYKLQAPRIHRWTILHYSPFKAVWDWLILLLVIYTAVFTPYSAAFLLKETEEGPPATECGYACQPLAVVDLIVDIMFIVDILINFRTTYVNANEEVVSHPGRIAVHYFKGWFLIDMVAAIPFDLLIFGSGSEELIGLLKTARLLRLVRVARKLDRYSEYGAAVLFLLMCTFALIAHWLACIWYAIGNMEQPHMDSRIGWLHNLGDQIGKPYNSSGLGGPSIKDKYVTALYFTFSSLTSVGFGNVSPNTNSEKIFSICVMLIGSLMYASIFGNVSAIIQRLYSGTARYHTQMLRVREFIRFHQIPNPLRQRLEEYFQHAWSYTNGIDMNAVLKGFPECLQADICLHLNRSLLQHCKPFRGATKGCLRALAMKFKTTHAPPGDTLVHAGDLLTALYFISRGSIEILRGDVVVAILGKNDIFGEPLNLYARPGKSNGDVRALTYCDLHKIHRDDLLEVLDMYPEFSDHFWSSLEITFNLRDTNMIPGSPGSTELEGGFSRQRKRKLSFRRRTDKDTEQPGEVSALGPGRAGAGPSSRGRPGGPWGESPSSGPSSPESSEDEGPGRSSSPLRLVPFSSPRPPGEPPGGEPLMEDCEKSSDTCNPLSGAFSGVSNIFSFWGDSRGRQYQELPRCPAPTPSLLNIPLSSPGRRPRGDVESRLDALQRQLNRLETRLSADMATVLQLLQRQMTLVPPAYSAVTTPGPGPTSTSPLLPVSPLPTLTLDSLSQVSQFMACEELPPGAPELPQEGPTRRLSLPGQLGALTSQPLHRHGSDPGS
Chain of α1I + Kir (Q9P0X4 whole entry): as the sequence (Q9P0X4 whole entry) above

IC50 (α1I [1]): 9 nM
IC50 (α1I + Kir): 296 nM
IC50 (α1I [2]; −80 mV, read-out: a1I VC (−80 mV)): 98 nM
IC50 (α1I [2]; −100 mV, read-out: α1I VC (−100 mV)): 4200 nM
IC50 (N-Type): > 10000 nM
PGP (PGP): 0.7
Papp (Papp permeability): 490 ×10⁻⁶ cm/s
Clp (Pharmacokinetics in rat; IV (DMSO)): 6 mL/min/kg
F (Pharmacokinetics in rat; PO (1% methylcellulose), 10 mpk): 68%
AUC (Pharmacokinetics in rat; [4]): 46 µM·h
Cmax (Pharmacokinetics in rat; [4]): 7600 nM
half-life (Pharmacokinetics in rat; plasma, IV (DMSO)): 1.6 h
Clp (Pharmacokinetics in dog; IV (DMSO)): 0.9 mL/min/kg
T1/2 (Pharmacokinetics in dog; IV (DMSO)): 11 h
F (Pharmacokinetics in dog; PO (1% methylcellulose), 1 mpk): 43%
AUC (Pharmacokinetics in dog; [5]): 23 µM·h
Cmax (Pharmacokinetics in dog; [5]): 2100 nM
Clp ([3]; IV (DMSO)): 17 mL/min/kg
T1/2 ([3]; IV (DMSO)): 0.9 h
F ([3]; PO (1% methylcellulose), 3 mpk): 7%
AUC [3, 6]: 0.6 µM·h
Cmax [3, 6]: 300 nM
Structure (SMILES): C[C@@H](NC(=O)Cc1ccc(C2CC2)cc1)c1ccc(OCC(F)(F)F)cn1 [TTA-A2]
IC50 (hERG): > 10000 nM
IC50 (L-Type): > 10000 nM
IC50 (Na Channel): > 10000 nM
Panlabs hits >50% @10 uM (Panlabs): 0 hits >50% @10 uM
WAG/Rij inhibition (WAG/Rij): 87% inhibition@4 hr
